# Experimental data: ChEMBL document CHEMBL2202954, “The effect of PLC-γ2 inhibitors on the growth of human tumour cells” (2012)
# Tests used:
# Type in all cases: functional
# MDA-MB-231 = assay: Cytotoxicity against human MDA-MB-231 cells assessed as cellular growth at 10 uM by SRB assay
# SK-MEL-5 = assay: Cytotoxicity against human SK-MEL-5 cells assessed as cellular growth at 10 uM by SRB assay
# RXF 393 = assay: Cytotoxicity against human RXF393 cells assessed as cellular growth at 10 uM by SRB assay
# SF-295 = assay: Cytotoxicity against human SF295 cells assessed as cellular growth at 10 uM by SRB assay
# SK-OV-3 = assay: Cytotoxicity against human SKOV3 cells assessed as cellular growth at 10 uM by SRB assay
# T47D = assay: Cytotoxicity against human T47D cells assessed as cellular growth at 10 uM by SRB assay
# SF-539 = assay: Cytotoxicity against human SF539 cells assessed as cellular growth at 10 uM by SRB assay
# MOLT-4 = assay: Cytotoxicity against human MOLT4 cells assessed as cellular growth at 10 uM by SRB assay
# HCT-116 = assay: Cytotoxicity against human HCT116 cells assessed as cellular growth at 10 uM by SRB assay
# M14 = assay: Cytotoxicity against human M14 cells assessed as cellular growth at 10 uM by SRB assay
# CAKI-1 = assay: Cytotoxicity against human Caki1 cells assessed as cellular growth at 10 uM by SRB assay
# SK-MEL-28 = assay: Cytotoxicity against human SK-MEL-28 cells assessed as cellular growth at 10 uM by SRB assay
# NCI-H23 = assay: Cytotoxicity against human NCI-H23 cells assessed as cellular growth at 10 uM by SRB assay
# CCRF-CEM = assay: Cytotoxicity against human CCRF-CEM cells assessed as cellular growth at 10 uM by SRB assay
# MCF7 = assay: Cytotoxicity against human MCF7 cells assessed as cellular growth at 10 uM by SRB assay
# Hs-578T = assay: Cytotoxicity against human Hs578T cells assessed as cellular growth at 10 uM by SRB assay
# HCC 2998 = assay: Cytotoxicity against human HCC2998 cells assessed as cellular growth at 10 uM by SRB assay
# [1] = Cytotoxicity against human NCI-ADR-RES cells assessed as cellular growth at 10 uM by SRB assay
# EKVX = assay: Cytotoxicity against human EKVX cells assessed as cellular growth at 10 uM by SRB assay
# DU-145 = assay: Cytotoxicity against human DU145 cells assessed as cellular growth at 10 uM by SRB assay
SMILES,Activity (MDA-MB-231),Activity (SK-MEL-5),Activity (RXF 393),Activity (SF-295),Activity (SK-OV-3),Activity (T47D),Activity (SF-539),Activity (MOLT-4),Activity (HCT-116),Activity (M14),Activity (CAKI-1),Activity (SK-MEL-28),Activity (NCI-H23),Activity (CCRF-CEM),Activity (MCF7),Activity (Hs-578T),Activity (HCC 2998),Activity [1],Activity (EKVX),Activity (DU-145)
Clc1ccccc1Nc1nnc(-c2ccncc2)s1,107.89%,97.75%,107.3%,88.68%,104.92%,89.46%,107.62%,93.42%,101.59%,103.83%,90.5%,100.34%,102%,95.96%,96.02%,94.94%,106.44%,101.59%,91.68%,
CC1(C)CCc2cc(-c3ccn(S(=O)(=O)c4ccccc4Cl)n3)ccc2O1,99.59%,75.14%,93.11%,,91.9%,58.8%,87.92%,64.66%,68.63%,78.84%,101.05%,99.8%,76.98%,59.83%,73.21%,102.19%,81.67%,78.37%,67.03%,93.97%
Nc1c(C(=O)NCc2ccccc2)sc2nc3c(cc12)C(=O)CCC3,111.36%,100.24%,122.76%,,111.91%,106.44%,105.28%,119.87%,108.9%,113.61%,,118.31%,106.63%,102.77%,110.54%,122.77%,107.63%,100.02%,,127.66%
O=C(Nc1ccc2oc(=O)ccc2c1)c1ccc(-c2ccc(Br)cc2)o1,104.85%,100.82%,112.24%,,112.03%,100.95%,101.06%,96.93%,103.94%,114.52%,183.36%,119.2%,103.68%,103.74%,98.67%,104.83%,112.96%,101.15%,113.5%,109.38%
O=c1/c(=C/c2ccccc2)sc2nc(-c3ccc(Cl)cc3Cl)nn12,,104.93%,111.76%,123.35%,98.1%,94.32%,114.11%,,100.59%,103.86%,96.38%,109.52%,102.55%,105.93%,100.42%,102.33%,122.44%,111.31%,110.01%,108.27%
N#Cc1ccc(-n2nnc3ccccc32)cc1C#N,111.41%,97.62%,100.39%,91.5%,98.76%,86.31%,101.14%,93.32%,102.06%,106.26%,85.44%,104.11%,94%,93.15%,82.05%,105.04%,103.78%,100.66%,79.18%,93.52%
O=C(NCc1cccnc1)c1sc2cc([N+](=O)[O-])ccc2c1Cl,117.28%,96.88%,111.54%,92.94%,91.06%,84.08%,103.86%,93.36%,99.66%,108.24%,85.26%,110.01%,97.31%,100.08%,92.75%,92.59%,104.9%,95.58%,90.5%,105.44%
Clc1ccc(-c2nc(-c3cccs3)no2)c(Cl)c1,,83.92%,107.35%,107.44%,93.87%,51.7%,107.53%,,94.56%,100.46%,81.96%,103.74%,92.64%,85.99%,29.22%,96.13%,66.03%,102.9%,72.63%,99.3%
Nc1c(C(=O)Nc2ccccc2)sc2nc3c(cc12)C(=O)CCC3,52.08%,25.74%,-9.9%,-12.42%,19.71%,47.06%,0.84%,43.43%,23.57%,1.11%,54.68%,58.69%,39.48%,16.76%,19.61%,37.53%,21.89%,-6.39%,84.59%,0.62%
Cc1cc(C)c(NC(=O)c2sc3nc4c(cc3c2N)C(=O)CCC4)c(C)c1,35.68%,11.34%,-6.65%,-11.34%,10.43%,40.64%,-6.5%,43.03%,23.12%,16.41%,-22.19%,55.98%,33.04%,22.12%,16.79%,17.68%,30.95%,-8.04%,54.36%,10.04%
Cc1ccccc1NC(=O)c1sc2nc3c(cc2c1N)C(=O)CCC3,61.61%,18.64%,-10.38%,57.18%,22.08%,43.92%,27.63%,67.51%,34.55%,41.54%,55.35%,52.79%,50.58%,30.28%,21.69%,25.78%,67%,22.58%,87.53%,18.31%
Cc1ccc(Cl)cc1NC(=O)c1sc2nc3c(cc2c1N)C(=O)CCC3,80.03%,26.98%,42.15%,4.01%,42.36%,82.87%,47.69%,84.85%,67.98%,62.9%,41.45%,67.01%,63.04%,49.18%,35.55%,60.85%,74.86%,43.81%,75.28%,77.37%
COc1ccc(S(=O)(=O)n2ccc(-c3ccc4c(c3)CCC(C)(C)O4)n2)cc1,87.67%,42.57%,110.14%,47.66%,90.41%,46.7%,102.86%,65.89%,68.33%,86.46%,63.3%,98.27%,59.58%,58.86%,73.48%,97.76%,88.92%,57.3%,51.56%,
Cc1ccc(S(=O)(=O)NC2=NC(=O)/C(=C\c3ccccc3)S2)cc1,100.89%,100.29%,118.7%,114.32%,107.71%,100.5%,96.06%,86.66%,111.6%,110.84%,102.92%,114.12%,107.93%,92.01%,97.41%,128.48%,106.96%,108.06%,99.77%,111.67%
Nc1c(C(=O)Nc2cccc(Cl)c2)sc2nc3c(cc12)C(=O)CCC3,43.9%,27.21%,25.93%,-20.21%,35.17%,52.94%,27.25%,57.06%,27.38%,26.93%,40.31%,51.4%,38%,13.46%,16.68%,4.53%,8.27%,17.69%,58.16%,11.61%
O=C(NCCc1ccccc1)c1cc2cccc([N+](=O)[O-])c2[nH]1,77.17%,76.25%,105.34%,92.52%,91.43%,69.69%,103.09%,91.34%,101.79%,100.89%,87.57%,99.12%,92.74%,86.81%,,111.09%,105.66%,97.02%,83.28%,112.66%
Nc1c(C(=O)Nc2ccccc2F)sc2nc3c(cc12)C(=O)CCC3,48.88%,17.91%,9.63%,3.17%,13.58%,40.19%,10.48%,73.64%,32.04%,19.18%,4.36%,64.11%,42.84%,26.78%,22.91%,37.25%,43.8%,-4.39%,56.31%,8.4%
